From PubChem BioAssay AID651653 (NMMLSC, 2012)
Calls of active or inactive are those of the source.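 How the source made its calls: active means viability at the top tested dose under 50% of the solvent-only control; inactive means the rest.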

Key:
[1] = tested on: K562-ABCB6 viability, CellTiter-Glo luminescence, 18 h; test: viability loss, K562-ABCB6 cells – cell-based, CellTiter-Glo luminescence, cherry picks 01-02, cytotoxicity control for ABCB6 inhibitor project, dose response (AID 651653)
[2] = as above; conditions: K562-ABCB6 viability, CellTiter-Glo luminescence, 18 h; at 100 µM (top of the series)

Compound | EC50 [1] [nM] | viability [2]
Cc1ccc(CS(=O)(=O)c2ncc(Cl)c(C(=O)Nc3ccc(OC(F)F)cc3)n2)cc1 | 3540 | –
O=C(Nc1ccc(F)cc1)c1nc(S(=O)(=O)Cc2ccccc2)ncc1Cl | 1540 | –
CCN(CC)S(=O)(=O)c1cccc(-n2c(O)c(C=Nc3ccccc3C(=O)O)c3ccccc3c2=O)c1 | 13100 | –
CCOc1ccccc1NC(=O)c1nc(S(=O)(=O)Cc2ccccc2)ncc1Cl | 11800 | –
CC(=O)Nc1ccc(NC(=O)c2nc(S(=O)(=O)Cc3cccc(C)c3)ncc2Cl)cc1 | 1920 | –
Cc1cccc(CS(=O)(=O)c2ncc(Cl)c(C(=O)Nc3nnc(C(C)C)s3)n2)c1 | 6520 | –
COC(=O)c1ccc(NC(=O)c2nc(S(=O)(=O)Cc3cccc(C)c3)ncc2Cl)cc1 | 688 | –
Cc1nnc(NC(=O)c2nc(S(=O)(=O)Cc3ccccc3)ncc2Cl)s1 | 811 | –
Cc1ccc(NC(=O)c2nc(S(=O)(=O)Cc3ccccc3)ncc2Cl)cc1 | 1800 | –
CCOc1ccccc1NC(=O)c1nc(S(=O)(=O)Cc2cccc(C)c2)ncc1Cl | 1430 | –
CC(=O)Nc1ccc(NC(=O)c2nc(S(=O)(=O)Cc3ccccc3)ncc2Cl)cc1 | 1190 | –
CCCc1nnc(NC(=O)c2nc(S(=O)(=O)Cc3cccc(C)c3)ncc2Cl)s1 | – | 65.4% (inactive)
CCc1ccc(NC(=O)c2nc(S(=O)(=O)Cc3ccccc3)ncc2Cl)cc1 | 1620 | –
CCOC(=O)c1ccc(NC(=O)c2nc(S(=O)(=O)Cc3ccccc3)ncc2Cl)cc1 | 1790 | –
Cc1cccc(C)c1NC(=O)c1nc(S(=O)(=O)Cc2ccccc2)ncc1Cl | 2110 | –
Cc1ccc(CS(=O)(=O)c2ncc(Cl)c(C(=O)Nc3nnc(C(C)C)s3)n2)cc1 | 3930 | –
Cc1ccc(NC(=O)c2nc(S(=O)(=O)Cc3ccccc3C)ncc2Cl)cc1C | 1450 | –
Cc1ccccc1CS(=O)(=O)c1ncc(Cl)c(C(=O)Nc2ccc(F)cc2)n1 | 7150 | –
C[N+](C)(C)CC1CCCC(C[N+](C)(C)C)C1=O (stereo not given) | 245 | –
Cc1cccc(CS(=O)(=O)c2ncc(Cl)c(C(=O)Nc3ccc(F)cc3)n2)c1 | 1520 | –
